{
  "source": "patent US20040176366A1",
  "about": "“Method of preventing or treating atherosclerosis or restenosis” (priority 2002, published 2004)",
  "origin": "cited, not measured here",
  "test_system": "CMV",
  "conditions": "rats, prophylaxis",
  "data": [
    {"compound": "Nc1nc(O)c2ncn(COC(CO)CO)c2n1", "note": "[Ganciclovir]", "values": [
      {"measurement": "prevention of atherosclerosis resulting from CMV infection", "value": "prevent atherosclerosis resulting from CMV infection of rats"}
    ]}
  ]
}
